The assay concerns the target Urease (Canavalia ensiformis, UniProt P07374). As to the kind of experiment: Inhibition Assay. An excerpt:
Inhibition assay using urease from jack bean.

pIC50: −log10 of the molar value.

Sequence of Urease (P07374 whole entry): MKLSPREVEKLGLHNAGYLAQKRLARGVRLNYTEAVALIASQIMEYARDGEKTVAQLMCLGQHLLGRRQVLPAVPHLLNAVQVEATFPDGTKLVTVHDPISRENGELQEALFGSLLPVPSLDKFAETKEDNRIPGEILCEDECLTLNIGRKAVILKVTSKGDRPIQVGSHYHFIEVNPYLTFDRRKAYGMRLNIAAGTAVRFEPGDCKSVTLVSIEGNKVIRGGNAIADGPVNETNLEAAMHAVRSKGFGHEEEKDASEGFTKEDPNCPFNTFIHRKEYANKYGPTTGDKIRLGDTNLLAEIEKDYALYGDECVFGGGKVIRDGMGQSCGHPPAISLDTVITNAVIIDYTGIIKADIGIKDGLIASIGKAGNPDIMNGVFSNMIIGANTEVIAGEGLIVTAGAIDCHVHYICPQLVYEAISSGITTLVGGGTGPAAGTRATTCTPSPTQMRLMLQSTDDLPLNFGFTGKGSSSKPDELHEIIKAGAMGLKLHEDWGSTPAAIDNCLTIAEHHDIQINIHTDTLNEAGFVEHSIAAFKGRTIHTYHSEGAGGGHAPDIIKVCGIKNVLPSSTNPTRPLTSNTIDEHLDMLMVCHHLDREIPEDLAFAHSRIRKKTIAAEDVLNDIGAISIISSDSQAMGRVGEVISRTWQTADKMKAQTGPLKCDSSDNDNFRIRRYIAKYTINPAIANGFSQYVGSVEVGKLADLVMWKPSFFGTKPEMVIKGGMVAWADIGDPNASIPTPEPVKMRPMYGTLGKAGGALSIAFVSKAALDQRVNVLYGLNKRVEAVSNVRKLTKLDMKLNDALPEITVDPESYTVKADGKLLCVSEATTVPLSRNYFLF

What is called pIC50 is −log10 of the IC50, conventionally taken in molar units. A high value points to a small IC50. `O=C1Nc2ccccc2/C1=N/NC(=S)Nc1c(Cl)cc(Cl)cc1Cl` [Thiosemicarbazone, 2l] gave a negative-log IC50 (pIC50) of 4.54.

The values above are taken from BindingDB's records for doi:10.1080/14756360802188420 (Bahauddin Zakariya University, 2009).
